Like-named read-outs stand apart in the source and are kept apart here. Marks after values point to notes of the source that are not given here. Non-standard residues stand in square brackets, D forms with d. PEG2000 = polyethylene glycol 2000, conjugated to the N-terminus; PEG4000 = polyethylene glycol 4000, conjugated to the C-terminus; PEG500 = polyethylene glycol 500, conjugated to the C-terminus; 2Nal = N[C@@H](Cc1ccc2ccccc2c1)C(=O)O; PEG1000 = polyethylene glycol 1000
Columns and labels:
[1] = test system: Pseudomonas aeruginosa ATCC 27853; assay: Injectable formulations on mice infected with peritonitis; assay type: in vivo, ICR mice; conditions: twice a day for 3 days; for Number of mice that died on each day after infection: day 1 / Number of mice that died on each day after infection: day 2 / Number of mice that died on each day after infection: day 3 / Number of mice that died on each day after infection: day 4 / Number of mice that died on each day after infection: day 5 / Average survival times (Days): n = 10; for Average survival times (Days): observed for 14 d
Summary of the method: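 ICR mice of both sexes (10 per group) infected intraperitoneally with 0.2 mL P. aeruginosa ATCC 27853 at 1×10^9 CFU/mL. Injectable formulations dosed by body weight via tail vein twice daily for 3 days; deaths and survival time recorded over 14 d.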

[2] = test system: Staphylococcus aureus (NRS 384); assay: microbe, parasite or virus in culture; assay type: cell-based; conditions: Staphylococcus aureus (NRS 384)
Summary of the method: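 CLSI broth microdilution with serial twofold dilutions gave MICs against S. aureus NRS 384, with 5 parallel replicates. Levofloxacin and the AMP Cbf-K16 served as positive controls.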

[3] = test system: Methicillin-sensitive Staphylococcus aureus (NRS 384); assay type: in vivo, ICR mice; conditions: 0.1 mL twice a day for 4 days, mouse back skin infection
Experimental: (§1) Both female and male ICR mice were used in the test, half of the female and male mice were taken and randomly assigned into groups, with 10 mice in each group, and kept in separate cages. The mice were divided into a blank group, a model group, a positive control Methicillin group, and topical formulation groups of AMPs LV-1 to LV-30. Suspensions of Methicillin-sensitive Staphylococcus aureus (NRS 384) and Methicillin-resistant Staphylococcus aureus (MRSA) were prepared, and their concentrations were adjusted to a concentration of 5×10^6 CFU/mL for subsequent use. Hair on backs of the mice was shaved with a shaver, wound was created on back skin of each mouse using a biopsy punch, and the wound was then infected with Methicillin-sensitive Staphylococcus aureus and Methicillin-resistant Staphylococcus aureus (0.1 mL, 5×10^6 CFU/mL) to establish infection models. Except for the blank group and the model group, all other groups received corresponding topical formulations applied directly to the infected areas, with a dose of 0.1 mL, twice a day for 4 consecutive days. On the day following the final administration, skin from the infected sites of each group was aseptically collected, and an antibacterial rate was calculated.

[4] = test system: Methicillin-resistant Staphylococcus aureus (MRSA); assay type: in vivo, ICR mice; conditions: 0.1 mL twice a day for 4 days, mouse back skin infection
Experimental: as §1

[5] = test system: carbapenem-resistant Klebsiella pneumoniae (CRKP); assay type: cell-based; conditions: drug-resistant strain CRKP
Summary of the method: (§2)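 MICs of antimicrobial peptides determined by CLSI serial twofold microdilution against clinical drug-resistant isolates. Five parallel repeats.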

[6] = test system: carbapenem-resistant Pseudomonas aeruginosa (CRPA); assay type: cell-based; conditions: drug-resistant strain CRPA
Summary of the method: as §2

[7] = test system: Methicillin-resistant Staphylococcus aureus (MRSA); assay type: cell-based; conditions: drug-resistant strain MRSA
Summary of the method: as §2

[8] = test system: carbapenem-resistant Escherichia coli (CREC); assay type: cell-based; conditions: drug-resistant strain CREC
Summary of the method: as §2

[9] = test system: vancomycin-resistant Enterococcus (VRE); assay type: cell-based; conditions: drug-resistant strain VRE
Summary of the method: as §2

Substance	Number of mice that died on each day after infection: day 1 ([1]; 1 mg/kg via tail vein)	Number of mice that died on each day after infection: day 2 ([1]; 1 mg/kg via tail vein)	Number of mice that died on each day after infection: day 3 ([1]; 1 mg/kg via tail vein)	Number of mice that died on each day after infection: day 4 ([1]; 1 mg/kg via tail vein)	Number of mice that died on each day after infection: day 5 ([1]; 1 mg/kg via tail vein)	Average survival times (Days) ([1]; 1 mg/kg via tail vein)	MIC against Staphylococcus aureus (NRS 384) [2]	Inhibition rate against Methicillin-sensitive Staphylococcus aureus (%) ([3]; topical formulation 0.2 mg/mL)	Inhibition rate against Methicillin-sensitive Staphylococcus aureus (%) ([3]; topical formulation 1 mg/mL)	Inhibition rate against Methicillin-sensitive Staphylococcus aureus (%) ([3]; topical formulation 5 mg/mL)	Inhibition rate against Methicillin-resistant Staphylococcus aureus (%) ([4]; topical formulation 0.2 mg/mL)	Inhibition rate against Methicillin-resistant Staphylococcus aureus (%) ([4]; topical formulation 1 mg/mL)	Inhibition rate against Methicillin-resistant Staphylococcus aureus (%) ([4]; topical formulation 5 mg/mL)	MIC CRKP [5]	MIC CRPA [6]	MIC MRSA [7]	MIC CREC [8]	MIC VRE [9]	other results
Ac-RKLLXRLKXRK-PEG500 [LV-27] (Ac-RKLL[2Nal]RLK[2Nal]RK-PEG500) [polyethylene glycol 500 conjugated to C-terminal; X=3-(2-naphthyl)-alanine]	1 Mouse	1 Mouse	0 Mouse	1 Mouse	0 Mouse	10.5**** Days	1 µg/mL	97.01%	98.74%	97.65%	86.50%	89.66%	88.02%	4 µg/mL	4 µg/mL	8 µg/mL	4 µg/mL	8 µg/mL	Number of mice that died on each day after infection: day 1 ([1]; 0.2 mg/kg via tail vein): 2 Mouse; Number of mice that died on each day after infection: day 2 ([1]; 0.2 mg/kg via tail vein): 2 Mouse; Number of mice that died on each day after infection: day 3 ([1]; 0.2 mg/kg via tail vein): 0 Mouse; Number of mice that died on each day after infection: day 4 ([1]; 0.2 mg/kg via tail vein): 1 Mouse; Number of mice that died on each day after infection: day 5 ([1]; 0.2 mg/kg via tail vein): 1 Mouse; Average survival times (Days) ([1]; 0.2 mg/kg via tail vein): 7.1** Days; Number of mice that died on each day after infection: day 1 ([1]; 5 mg/kg via tail vein): 0 Mouse; Number of mice that died on each day after infection: day 2 ([1]; 5 mg/kg via tail vein): 3 Mouse; Number of mice that died on each day after infection: day 3 ([1]; 5 mg/kg via tail vein): 0 Mouse; Number of mice that died on each day after infection: day 4 ([1]; 5 mg/kg via tail vein): 1 Mouse; Number of mice that died on each day after infection: day 5 ([1]; 5 mg/kg via tail vein): 0 Mouse; Average survival times (Days) ([1]; 5 mg/kg via tail vein): 9.4*** Days; survival time of mice infected with Pseudomonas aeruginosa ([1]; tail vein, observed 14 d): superior to those of the Levofloxacin group
Ac-RKLLXRLKXRK-PEG1000 [LV-28] (Ac-RKLL[2Nal]RLK[2Nal]RK-PEG1000) [polyethylene glycol 1000 conjugated to C-terminal; X=3-(2-naphthyl)-alanine]	1 Mouse	0 Mouse	1 Mouse	1 Mouse	1 Mouse	9.7*** Days	1 µg/mL	96.03%	96.75%	97.82%	86.23%	87.81%	88.66%	4 µg/mL	8 µg/mL	4 µg/mL	4 µg/mL	4 µg/mL	–
Ac-RKLLXRLKXRK-PEG4000 [LV-30] (Ac-RKLL[2Nal]RLK[2Nal]RK-PEG4000) [polyethylene glycol 4000 conjugated to C-terminal; X=3-(2-naphthyl)-alanine]	1 Mouse	1 Mouse	0 Mouse	1 Mouse	1 Mouse	9.6*** Days	1 µg/mL	96.07%	96.91%	98.24%	86.10%	87.85%	88.93%	4 µg/mL	8 µg/mL	8 µg/mL	4 µg/mL	4 µg/mL	–
PEG2000-RKLLXRLKXRK-NH2 [LV-29] (PEG2000-RKLL[2Nal]RLK[2Nal]RK-NH2) [polyethylene glycol 2000 conjugated to N-terminal; X=3-(2-naphthyl)-alanine]	1 Mouse	0 Mouse	0 Mouse	3 Mouse	1 Mouse	8.8** Days	1 µg/mL	96.49%	97.11%	98.65%	86.34%	87.29%	88.16%	8 µg/mL	4 µg/mL	4 µg/mL	8 µg/mL	4 µg/mL	–
